Results taken from US20220340849A1, “BRAIN-CHIP MODELING NEURODEGENERATION AND NEUROINFLAMMATION IN PARKINSON'S DISEASE” (EMULATE, INC., priority 2019, published 2022).

How the values were obtained:
[1] = system: neurons, astrocytes and microglia in the brain channel of the Brain-Chip; format: cell-based, human
Method: Neuroinflammation incorporates a broad spectrum of complex cellular responses that often contribute to the pathogenesis and progression of various neurological disorders. To study the effects of neuroinflammatory specific signals on the Brain-Chip, TNF-α was perfused within the brain channel at a pathophysiological concentration of 100 ng/mL (FIG. 36A and FIG. 35). […] In addition, excessive TNF-α levels have been reported to have an inhibitory effect on glutamate transporters, resulting in increased glutamate concentration in the CNS parenchyma, linking the central inflammatory response to glutamate-mediated toxicity. To test this hypothesis in this system, secreted glutamate levels were measured by enzyme-linked immunosorbent assay (ELISA).
In one embodiment, a model of neuroinflammation was provided by treating cells as a neurovascular unit (brain side) with TNF-alpha added to the brain channel. TNFα, was previously reported to mediate neuroinflammation and detected in patients with neurological. disorders. On days 0 and 1, cells were seeded on the top and bottom channel of one embodiment of a Brain-Chip, respectively. The Brain-Chip is then allowed to mature under flow conditions for 4 more days and on day 5, cells on the brain side are treated with TNFα, for 48 hrs. During exposure, effluent is collected, and on the last day of the experiment, cells in chips may be imaged, stained for immunohistochemistry and imaged. In some embodiments, cells are lysed for transcriptomic analysis. Thus, modeling neuroinflammation comprises Brain chips and methods of use where TNF-a and/or other inflammatory compounds are added to the Brain channel. In some embodiments, such neuroinflamed brain chips are used in methods for developing treatments in addition for testing compounds for efficacy and safety.
(§1) TNF-α treatment. To mimic the inflammatory condition, cells were treated on either brain or vascular channel with TNF-α (Tumor Necrosis Factor-α, R&D Systems; 210-TA). The treatment was initiated after the formation of a confluent monolayer at ˜5 days in culture. Cells were further incubated in a culturing medium, including TNF-α (100 ng/ml) up to 48 hours.
Morphological analysis. Immunocytochemistry, including immunofluorescence microscopy, was conducted as previously described (Pediaditakis et al., 2020). Brief examples of methods are described herein. Brain-Chips were fixed with 4% paraformaldehyde in PBS for 10 min and then washed with PBS. Cells were blocked on the Brain-Chip in phosphate-buffered saline (PBS) containing 10% donkey serum (Sigma) at 4° C. overnight. […] Images were acquired with either an Olympus fluorescence microscope (IX83) or an inverted laser-scanning confocal microscope, e.g. Zeiss confocal microscope (AxiovertZ1 LSM880).

[2] = system: Brain-Chip brain channel cells; experiment: Secreted cytokines (MSD V-PLEX) and glutamate in brain channel media of the TNF-α treated Brain-Chip; format: cell-based, human
Method: To determine whether the level of other inflammatory cytokines increases in this TNF-α model, levels of IFNγ, interleukin-1β (IL-1β) and IL-6, were measured following two days of exposure within the brain channel media. These cytokines are associated with the increase of BBB permeability.
In one embodiment, chips were seeded with human iPS-derived glutamatergic and GABAergic neurons (NeuCyte) at a density of 2×10^6 cells/mL and 0.75×10^6 cells/mL respectively, co-cultured with human primary microglia (ATCC; CRL3304) at a density of 1×10^5 cells/mL, human primary astrocytes (NeuCyte), and primary pericytes (Sciencell; 1200) at a density of 1×10^5 cells/mL, using “seeding medium” (NeuCyte), and incubated overnight. The next day, human iPS-derived Brain Microvascular Endothelial cells were seeded in the vascular channel at a density of 14-16×10^6 cells/mL using human serum-free endothelial cell medium supplemented with 5% human serum from platelet-poor human plasma (Sigma) and allowed to attach to the membrane overnight. Chips were then connected to the culture module. At this time, the medium supplying the brain channel was switched to maintenance medium (Neucyte), and the serum of the vascular medium was lowered to 2%. Chips were maintained under constant perfusion at 60 μL/hr through all chips' brain and vascular channels until day 7. Two additional commercial endothelial cell sources were used in experiments. Human primary endothelial cells (Cell Systems) and hCMEC/D3 (Millipore) were cultured in media according to the manufacturer's instructions.
as §1
ELISA analysis. The levels of IFNγ, IL-1β, and IL-6 were measured by M.S.D. 96-well plate Human Pro-Inflammatory V-PLEX Human Pro-Inflammatory Assay kits. The secreted levels of Glutamate were measured by Glutamate Assay Kit (Fluorometric) (Abcam; ab138883).

[3] = system: iPS-derived brain endothelial cells; experiment: Immunofluorescence of ZO-1 and ICAM-1 in the vascular channel of the TNF-α treated Brain-Chip; format: cell-based, human
Method: BBB permeability assays were done on the Brain-Chip upon exposure to TNF-α compared to the untreated group.
(§2) Morphological analysis. Immunocytochemistry, including immunofluorescence microscopy, was conducted as previously described (Pediaditakis et al., 2020). Brief examples of methods are described herein. Brain-Chips were fixed with 4% paraformaldehyde in PBS for 10 min and then washed with PBS. Cells were blocked on the Brain-Chip in phosphate-buffered saline (PBS) containing 10% donkey serum (Sigma) at 4° C. overnight. Immunostaining was performed after permeabilization in PBS with 0.1% Saponin and blocking for 30 min in 10% donkey serum in PBS with 0.1% Saponin. Immunostaining was performed with specific primary antibodies (anti-TH, anti-GFAP, anti-NG2, anti-TMEM119, anti-pSer129-αSyn, anti-Cleaved Caspase-3, anti-CD68; Abcam), (anti-MAP2, and anti-CD31; Thermo Fisher Scientific), (anti-Claudin-1, anti-Claudin-5, anti-Occludin, anti-ZO-1; Invitrogen), in a 1:100 dilution in 10% donkey serum in PBS with 0.1% Saponin and incubated overnight on the Brain-Chip at 4° C. Additional primary antibodies were MAP2 (Thermo Fisher Scientific; MA512826), VGLUT1 (Thermo Fisher Scientific; 48-2400), GFAP (Abcam; ab53554), NG2 (Abcam; ab83178), CD68 (Abcam; ab213363), ICAM-1 (R&D Systems; BBA3), ZO-1 (Thermo Fisher Scientific; 402200), GLUT1 (Thermo Fisher Scientific; SPM498). Fluorescently conjugated secondary antibodies with Alexa Fluor-488, Alexa Fluor-568, or Alexa Fluor-647 (Abcam) were then used when the primary antibodies are not conjugated, incubated in the dark for 2 hr at room temperature. Cells were then counterstained with DAPI nuclear stain. Images were acquired with either an Olympus fluorescence microscope (IX83) or an inverted laser-scanning confocal microscope, e.g. Zeiss confocal microscope (AxiovertZ1 LSM880).

[4] = system: Blood-Brain Barrier of the Brain-Chip; experiment: BBB permeability to 3 kDa dextran in the TNF-α treated Brain-Chip; format: cell-based, human
Method: To directly measure how BBB permeability changed over time in response to TNFα, the transport of 3-kDa Cascade Blue dextran was evaluated across the BBB. Fluorescent dextran molecule was introduced in the vascular channel. After 24 hrs and 48 hrs of exposure, the amount of fluorescent dextran collected in the Brain-side was measured.
as §1
Permeability Assays, e.g., evaluate the establishment and integrity of the barrier. Apparent permeability (Papp) of the barrier was calculated by following a previously described method^81. Briefly, 100 μg mL^−1 (0.1 mg/mL) of dextran (3 kDa, e.g. Cascade Blue) and/or 20 μg mL^−1 of Lucifer (0.5 kDa) tracers were dosed (flowed) through the vascular channels for 24 hrs. After 24 hrs, effluent from both channels was sampled to determine the dye's concentration (amount) that had diffused through the membrane. Concentration of the dextran and Lucifer tracers in the outlet samples from both vascular and brain channels was determined by using BioTek (BioTek Instruments, Inc., Winooski, Vt., USA). […]
Here, SA is the surface area of sections of the channels that overlap (0.17 cm^2), QR and QD are the fluid flow rates in the dosing and receiving channels respectively, in units of cm^3/s, CR,0 and CD,0 are the recovered concentrations in the dosing and receiving channels respectively, in any consistent units. IgG permeability was also evaluated after dosing the vascular channel and measuring the IgG content on the brain channel. Detection and quantitation of serum immunoglobulin G (IgG1; Abcam) was performed using the ELISA kit (Abcam), after 24 hrs of perfusion.

[5] = system: HMC3 cells; settings: 10 ng/ml, 24 h; cited from earlier work
[6] = system: brain channel cells of the SN Brain-Chip (dopaminergic neurons); experiment: Immunostaining of phospho-αSyn129 / αSyn accumulation in the brain channel; format: cell-based, human; settings: 10 mM dose, compared to cells exposed to αSyn fibrils alone
Method: Thus, the capability of exogenously added fibrils was accessed for accumulation and processing cells of a SN Brain-Chip. Recombinant αSyn fibrils (4 μg/mL) was added in the culture medium of the brain channel under continuous flow, on Day 2 of the culture (FIG. 57A).
After three- and six-days upon-exposure to αSyn fibrils (D5 and D8 of the experiment, respectively), the exposed chips underwent immunostaining in order to determine the abundance of phosphoSer129-alph α-synuclein (phospho-αSyn129), a post-translational modification characteristic of pathogenic αSyn species^47,48.
Addition of exogenous alpha-synuclein to brain channel. Human recombinant αSyn monomers and pre-formed fibrils were purchased from Abcam (Monomers; ab218819, Fibrils; ab218819), and were diluted in DopaNeurons Media to a final concentration of 4 μg/mL. […]
For treatment, freshly prepared monomers and fibrils were used. […] Effluents, lysates, and staining were collected/fixed at day three- and day six post-exposure (D5 and D8 respectively), and were analyzed by a microplate reader, ELISA kits, and immunofluorescence microscopy.
Morphological analysis. […] Images were acquired with either an Olympus fluorescence microscope (IX83) or an inverted laser-scanning confocal microscope, e.g. Zeiss confocal microscope (AxiovertZ1 LSM880).

[7] = system: BBB in the SN Brain-Chip; experiment: Permeability assays (apparent permeability, Papp) on the SN Brain-Chip; format: cell-based, human; settings: αSyn fibril damaged SN Brain-Chips, trehalose added via brain channel on day 5, read after 72 hours (D8)
Method: Thus, BBB permeability assays were measured on the SN Brain-Chip after exposure to αSyn fibrils, as compared to exposure to αSyn monomers or PBS.
Permeability Assays, e.g., evaluate the establishment and integrity of the barrier. Apparent permeability (Papp) of the barrier was calculated by following a previously described method^81. […] After 24 hrs, effluent from both channels was sampled to determine the dye's concentration (amount) that had diffused through the membrane. […] Then, the following equation was used to calculate apparent paracellular permeability (Papp) based on a standard curve and using the following formula:

[8] = system: endothelial cells of the SN Brain-Chip; experiment: Morphological analysis of tight junctions in endothelial cells in the αSyn fibril model; format: cell-based, human
Method: The junction protein expression of Claudin-5 was visualized by immunofluorescence staining with a Claudin-5 antibody and DAPI for cell nuclei. Scale bars: 50 μm.
as §2, with “Additional primary antibodies were MAP2 (Thermo Fisher Scientific; MA512826), VGLUT1 (Thermo Fisher Scientific; 48-2400), GFAP (Abcam; ab53554), NG2 (Abcam; ab83178), CD68 (Abcam; ab213363), ICAM-1 (R&D Systems; BBA3), ZO-1 (Thermo Fisher Scientific; 402200), GLUT1 (Thermo Fisher Scientific; SPM498). Fluorescently conjugated secondary antibodies with Alexa Fluor-488, Alexa Fluor-568, or Alexa Fluor-647 (Abcam) were then used when the primary antibodies are not conjugated, incubated in the dark for 2 hr at room temperature. Cells were then counterstained with DAPI nuclear stain.” left out

[9] = TNF-α 100 ng/mL perfused within the brain channel, two days, vs untreated
[10] = TNF-α 100 ng/mL in brain channel (neuroinflammation), two days, vs untreated
[11] = TNF-α perfused within the vascular channel (systemic inflammation), two days, vs untreated
[12] = TNF-α 100 ng/mL within the vascular channel, vs control

TNF-α
microglia activation (phenotypic changes, phagocytosis of latex beads) ([1]; TNF-alpha 100 ng/ml): activates microglia as shown by phenotypic changes and induction of phagocytosis
proportion of the GFAP-positive cells [1, 9]: significantly increased
proportion of the MAP2-positive cells [1, 9]: decreased
activated microglia (CD68 expression) ([1]; TNF-α 100 ng/mL, brain channel, two days of exposure): activated microglia were also observed
IL-6 production, Brain chips with and without microglial cells ([2]; TNF-alpha, 24 and 48 hours): induced significant IL-6 production in both embodiments
IL-6 secreted, Brain chips including microglial cells over those without ([2]; TNF-alpha, after both 24 and 48 hours): unexpected significant increase
secreted glutamate levels (ELISA), media of the brain channel ([2]; TNF-α 100 ng/mL brain channel, two days, vs untreated): significantly higher
level of IFNγ in brain channel media [2, 10]: significantly higher
level of IL-1β in brain channel media [2, 10]: significantly higher
level of IL-6 in brain channel media [2, 10]: significantly higher
level of IL-6 in brain channel media, absence of microglia ([2]; TNF-α exposure, Brain-Chip without microglia): not stigmatically changed
level of IFNγ in brain channel media [2, 11]: significantly higher levels
level of IL-1β in brain channel media [2, 11]: significantly higher levels
level of IL-6 in brain channel media [2, 11]: significantly higher levels
expression of BBB tight junction protein ZO-1 [3, 12]: significantly attenuated
expression of ICAM-1 [3, 12]: increased
ZO-1 expression ([3]; TNF-α in brain channel, 48 hrs): loss of ZO-1
intercellular adhesion molecule 1 (ICAM-1) expression ([3]; TNF-α in brain channel, 48 hrs): excessive increase
permeability to 3 kDa dextran ([4]; TNF-α 100 ng/mL in brain channel, 24 and 48 hrs, time dependent): significantly increased permeability
permeability to 3 kDa dextran ([4]; TNF-α 100 ng/mL perfused within the vascular channel (systemic inflammation)): significantly increased permeability
transport through the BBB (apparent permeability) vs vehicle control ([4]; TNFα 100 ng/mL on the brain side, 24 hrs and 48 hrs): significantly increased by three times over the control

IFN-gamma: cytokine used to activate HMC3 microglia cells
markers of activated microglia MHCII, CD68 and CD11b [5]: upregulated

OC[C@H]1O[C@H](O[C@H]2O[C@H](CO)[C@@H](O)[C@H](O)[C@H]2O)[C@H](O)[C@@H](O)[C@@H]1O [trehalose, O-α,-d-glucopyranosyl-[1→1]-α-d-glucopyranoside]
accumulation of αSyn within the cells of the brain channel [6]: diminished the accumulation of αSyn
BBB permeability (3 kDa dextran) [7]: significantly decreased BBB permeability
tight junctions (ZO-1, Claudin-5) ([8]; αSyn fibril damaged SN Brain-Chips, trehalose treated, D8): rescuing damaged tight junctions
junction protein expression of ZO-1 ([8]; αSyn fibril model with or without trehalose treatment): restoration of junction protein expression of ZO-1
